US20220031596A1, “ANTI-AGING AGENT AND ANTI-AGING METHOD” (priority 2018, published 2022)

Key:
Format in all cases: in vivo, human
[1] = tested on: prolactin concentration in the plasma; assay: Evaluation of prolactin secretion promoting effect (plasma prolactin, 24-week oral ingestion); conditions: for prolactin concentration in the plasma, 0 weeks (before ingestion) / prolactin concentration in the plasma, 24 weeks (after ingestion) / prolactin concentration in the plasma, Change rate (24 weeks - 0 weeks): Low Dose Group (100 mg/daily, oral), mean±SD; for prolactin concentration in the plasma, 0 weeks (before ingestion): baseline
Protocol: In order to confirm a change in the prolactin quantity before and after ingestion of the nicotinamide mononucleotide, a test was conducted on healthy males and females aged 50 to 70 years.
As a sample of Working Example 9, a capsule formulation containing the nicotinamide mononucleotide and starch (100 mg of the nicotinamide mononucleotide in 4 capsules) (manufactured by SHINKOWA PHARMACEUTICAL Co., Ltd.) was used.
(§1) Each group consisting of five healthy males and females aged 50 to 70 years in an unbiased age group ingested the above high dose capsule formulation once a day by 4 capsules for 24 weeks (total 10 subjects, 100 mg/daily ingestion). In order to conduct appropriate evaluations, those who had been regularly using medical products for chronic diseases, those who had been consuming healthy foods that may affect clinical research, and those who were currently participating in other clinical researches or clinical trials or had participated in other clinical researches or clinical trials within the last three months were excluded from the subject for the evaluation. The capsule formulations were ingested at 10 am (between meals and fasting state) together with water or lukewarm water (oral administration).
Measurement of the prolactin quantity in the plasma was conducted by requesting the measurement to an external public organization according to a usual method. FIGS. 18a to 18c indicate transitions of the prolactin concentration (ng/ml) in the plasma for 24 weeks. FIG. 18a represents the transitions of the whole subjects; FIG. 18b represents the transitions of the male subjects; FIG. 18c represents the transitions of the female subjects. Further, FIGS. 19a to 19c indicate change rates (%) of the blood prolactin concentration up to 24 weeks when the nicotinamide mononucleotide was orally administered to the subjects for 24 weeks. FIG. 19a represents the change rates of the whole subjects; FIG. 19b represents the change rates of the male subjects; FIG. 19c represents the change rates of the female subjects. Further, Table 9 indicates the numerical values of the prolactin concentration (ng/ml) in the plasma before the ingestion of the nicotinamide mononucleotide (0 weeks) and after the ingestion of the nicotinamide mononucleotide (24 weeks). Note that the numerical values represent mean values±standard deviation.

[2] = tested on: growth hormone concentration in the plasma; assay: Evaluation of growth hormone secretion promoting effect (plasma growth hormone, 24-week oral ingestion); conditions: for growth hormone concentration in the plasma, 0 weeks (before ingestion) / growth hormone concentration in the plasma, 24 weeks (after ingestion) / growth hormone concentration in the plasma, Change rate (24 weeks - 0 weeks): High Dose Group (200 mg/daily, oral), mean±SD; for growth hormone concentration in the plasma, 0 weeks (before ingestion): baseline
Protocol: In order to confirm a change in the growth hormone quantity before and after ingestion of the nicotinamide mononucleotide, a test was conducted on healthy males and females aged 50 to 70 years.
As a sample of Working Example 2, a capsule formulation containing the nicotinamide mononucleotide and starch (200 mg of the nicotinamide mononucleotide in 4 capsules) (manufactured by SHINKOWA PHARMACEUTICAL Co., Ltd.) was used.
as §1, with “above” for “above high dose”, “200” for “100”
Measurement of the growth hormone quantity in the plasma was conducted by requesting the measurement to an external public organization according to a usual method. FIGS. 4a to 4c indicate transitions of the growth hormone concentration (ng/ml) in the plasma for 24 weeks. FIG. 4a represents the transitions of the whole subjects; FIG. 4b represents the transitions of the male subjects; FIG. 4c represents the transitions of the female subjects. Further, FIGS. 5a to 5c indicate change rates (%) of the blood growth hormone concentration up to 24 weeks when the nicotinamide mononucleotide was orally administered to the subjects for 24 weeks. FIG. 5a represents the change rates of the whole subjects; FIG. 5b represents the change rates of the male subjects; FIG. 5c represents the change rates of the female subjects. Further, Table 2 indicates the numerical values of the growth hormone concentration (ng/ml) in the plasma before the ingestion of the nicotinamide mononucleotide (0 weeks) and after the ingestion of the nicotinamide mononucleotide (24 weeks). Note that the numerical values represent mean values±standard deviation.

[3] = tested on: ghrelin concentration in the plasma; assay: Evaluation of ghrelin secretion promoting effect (plasma ghrelin, 24-week oral ingestion); conditions: for ghrelin concentration in the plasma, 0 weeks (before ingestion) / ghrelin concentration in the plasma, 24 weeks (after ingestion) / ghrelin concentration in the plasma, Change rate (24 weeks - 0 weeks): High Dose Group (200 mg/daily, oral), mean±SD; for ghrelin concentration in the plasma, 0 weeks (before ingestion): baseline
Protocol: In order to confirm a change in the ghrelin quantity before and after ingestion of the nicotinamide mononucleotide, a test was conducted on healthy males and females aged 50 to 70 years.
As a sample of Working Example 3, a capsule formulation containing the nicotinamide mononucleotide and starch (200 mg of the nicotinamide mononucleotide in 4 capsules) (manufactured by SHINKOWA PHARMACEUTICAL Co., Ltd.) was used.
as §1, with “above” for “above high dose”, “200” for “100”
Measurement of the ghrelin quantity in the plasma was conducted by requesting the measurement to an external public organization according to a usual method. FIGS. 6a to 6c indicate transitions of the ghrelin concentration (pg/ml) in the plasma for 24 weeks. FIG. 6a represents the transitions of the whole subjects; FIG. 6b represents the transitions of the male subjects; FIG. 6c represents the transitions of the female subjects. Further, FIGS. 7a to 7c indicate change rates (%) of the blood ghrelin concentration up to 24 weeks when the nicotinamide mononucleotide was orally administered to the subjects for 24 weeks. FIG. 7a represents the change rates of the whole subjects; FIG. 7b represents the change rates of the male subjects; FIG. 7c represents the change rates of the female subjects. Further, Table 3 indicates the numerical values of the ghrelin concentration (pg/ml) in the plasma before the ingestion of the nicotinamide mononucleotide (0 weeks) and after the ingestion of the nicotinamide mononucleotide (24 weeks). Note that the numerical values represent mean values±standard deviation.

NC(=O)c1ccc[n+]([C@@H]2O[C@H](COP(=O)([O-])O)[C@@H](O)[C@H]2O)c1 [nicotinamide mononucleotide]
prolactin concentration in the plasma, 0 weeks (before ingestion) ([1]; Female): 8.50 ± 2.71 ng/mL | prolactin concentration in the plasma, 24 weeks (after ingestion) ([1]; Female): 10.15 ± 3.22 ng/mL | prolactin concentration in the plasma, Change rate (24 weeks - 0 weeks) ([1]; Female): 1.66 ± 4.32 ng/mL | prolactin concentration in the plasma, 0 weeks (before ingestion) ([1]; Male): 9.23 ± 1.92 ng/mL | prolactin concentration in the plasma, 24 weeks (after ingestion) ([1]; Male): 9.58 ± 2.47 ng/mL | prolactin concentration in the plasma, Change rate (24 weeks - 0 weeks) ([1]; Male): 0.35 ± 1.40 ng/mL | prolactin concentration in the plasma, 0 weeks (before ingestion) ([1]; Whole Subjects): 8.86 ± 2.25 ng/mL | prolactin concentration in the plasma, 24 weeks (after ingestion) ([1]; Whole Subjects): 9.87 ± 2.72 ng/mL | prolactin concentration in the plasma, Change rate (24 weeks - 0 weeks) ([1]; Whole Subjects): 1.00 ± 3.10 ng/mL | prolactin concentrations in the plasma, effect of ingestion (in words) ([1]; oral, 100 mg/daily, 24 weeks, FIGS. 18a-18c, 19a-19c): increased | growth hormone concentration in the plasma, 0 weeks (before ingestion) ([2]; Female): 0.91 ± 0.28 ng/mL | growth hormone concentration in the plasma, 24 weeks (after ingestion) ([2]; Female): 2.14 ± 2.22 ng/mL | growth hormone concentration in the plasma, Change rate (24 weeks - 0 weeks) ([2]; Female): 1.24 ± 2.31 ng/mL | growth hormone concentration in the plasma, 0 weeks (before ingestion) ([2]; Male): 0.21 ± 0.12 ng/mL | growth hormone concentration in the plasma, 24 weeks (after ingestion) ([2]; Male): 2.41 ± 3.44 ng/mL | growth hormone concentration in the plasma, Change rate (24 weeks - 0 weeks) ([2]; Male): 2.20 ± 3.34 ng/mL | growth hormone concentration in the plasma, 0 weeks (before ingestion) ([2]; Whole Subjects): 0.56 ± 0.42 ng/mL | growth hormone concentration in the plasma, 24 weeks (after ingestion) ([2]; Whole Subjects): 2.28 ± 2.73 ng/mL | growth hormone concentration in the plasma, Change rate (24 weeks - 0 weeks) ([2]; Whole Subjects): 1.72 ± 2.76 ng/mL | growth hormone concentrations in the plasma, effect of ingestion (in words) ([2]; oral, 200 mg/daily, 24 weeks, FIGS. 4a-4c, 5a-5c): increased | ghrelin concentration in the plasma, 0 weeks (before ingestion) ([3]; Female): 260 ± 111 pg/mL | ghrelin concentration in the plasma, 24 weeks (after ingestion) ([3]; Female): 990 ± 834 pg/mL | ghrelin concentration in the plasma, Change rate (24 weeks - 0 weeks) ([3]; Female): 730 ± 847 pg/mL | ghrelin concentration in the plasma, 0 weeks (before ingestion) ([3]; Male): 111 ± 91 pg/mL | ghrelin concentration in the plasma, 24 weeks (after ingestion) ([3]; Male): 152 ± 131 pg/mL | ghrelin concentration in the plasma, Change rate (24 weeks - 0 weeks) ([3]; Male): 40 ± 50 pg/mL | ghrelin concentration in the plasma, 0 weeks (before ingestion) ([3]; Whole Subjects): 186 ± 124 pg/mL | ghrelin concentration in the plasma, 24 weeks (after ingestion) ([3]; Whole Subjects): 571 ± 716 pg/mL | ghrelin concentration in the plasma, Change rate (24 weeks - 0 weeks) ([3]; Whole Subjects): 385 ± 672 pg/mL | ghrelin concentrations in the plasma, effect of ingestion (in words) ([3]; oral, 200 mg/daily, 24 weeks, FIGS. 6a-6c, 7a-7c): increased
